Measured values as given in US20040019018A1, “Rigid pyrrolidone modulators of pkc” (priority 2003, published 2004).

Columns and labels:
[1] = system: LNCaP prostate cancer cells; assay: Induction of apoptosis in LNCaP prostate cancer cells (DAPI staining); format: cell-based
Method: The capacity of inducing apoptosis by compound (1) was evaluated in a model of LNCaP prostate cancer cells. It is well established that in this model phorbol esters (e.g., PMA) activate PKC to induce apoptosis (reference 13). LNCaP cells were treated with compound (1) for 1 h, and apoptosis was assessed 24 h later.
Control cells or cells infected for 14 h with adenoviruses for LacZ, PKCα, or PKCδ (multiplicity of infection=10 pfu/cell) were treated with different concentrations of compound (1) or PMA for 1 h. Cells were collected 24 h later and stained with DAPI. The incidence of apoptosis in each preparation was analyzed by counting 500 cells and determining the percentage of apoptotic cells. Results are the mean±standard error of three independent experiments.
It is well established that PKCα and PKCδ are the isozymes that mediate phorbol ester-induced apoptosis in LNCaP cells (references 13c-e). A model that has been used to assess isozyme-specificity is the overexpression of specific PKCs by an adenoviral system. Infection of LNCaP cells with adenoviruses for PKCs leads to a high expression of the corresponding PKC isozyme, as determined by Western-blot analysis, kinase activity, or [^3H]PDBu binding (reference 13e).

soluble APPα (sAPPα) = assay: Secretion of soluble APPα from human fibroblasts (Example 15); format: cell-based; settings: 10-20 μM, 2 hours
Method: Human fibroblasts from Alzheimer's patients (AD, cell line AG06848) or age-matched controls (AC, cell line AG07141) were grown to near confluence in DMEM containing 10% fetal bovine serum. On the day of the experiments, cells were rinsed twice with DMEM with no serum and incubated with the same […] for 2 hours at 37° C., 5% CO2. Cells were incubated for 2 additional hours with different concentrations of the drugs or equal volume of DMSO vehicle as control. The medium was collected and centrifuged at 1000 rpm to remove cell debris. Proteins were precipitated by addition of equal volume of 20% ice-cold tricholoroacetic acid (TCA) and incubation on ice for 60 minutes. The protein pellets were washed with ice-cold acetone and centrifuged for 30 minutes at 20,000 g for 30 minutes and dried overnight. Pellets were dissolved in electrophoresis buffer and proteins corresponding to the same concentration of protein were separated by SDS-PAGE and transferred to PVDF membranes according to the manufacturer's instructions. After electrophoresis, the membranes were blocked with Blotto and incubated overnight with a monoclonal antibody 6E10 (Synetek) that recognizes the APPα. After incubation with the secondary antibody, alkaline phosphatase anti-mouse IgG (Jackson's Laboratories), the membranes were developed using an alkaline phosphatase kit (BioRad) as per the manufacturer's instructions.

CCCCCCCCC#Cc1ccc2c(c1)C(C)(C(C)C)C1C(=O)NC(CO)C21 [Compound 1, (3S, 8R, 9S, 10S)-6-(dec-1′-ynyl)-3-hydroxymethyl-8-isopropyl-8-methyl-3,3a,8,8a-tetrahydro-2H-2-aza-cyclopenta[a]inden-1-one]
apoptotic effect in LNCaP cells ([1]; 1-30 μM, treated 1 h, apoptosis assessed 24 h later, FIG. 6A): induces a dose-dependent apoptotic effect | apoptotic effect with control adenovirus ([1]; LNCaP cells infected with LacZ adenovirus): did not affect the apoptotic effect | apoptotic response with overexpression of PKC isozymes ([1]; LNCaP cells infected with adenoviruses for PKCα or PKCδ): markedly potentiates the apoptotic response | secretion of soluble APPα (sAPPα) (soluble APPα (sAPPα)): increased the secretion of soluble APPα (sAPPα) significantly
